The numbers were not newly measured in patent US8288412B2, “Compounds which have activity at M1 receptor and their uses in medicine” (Glaxo Group Limited, priority 2005, dated 2012), which cites them from elsewhere.

For data set [1] the following is noted: rats.
For data set [2] the following is noted: mice.
The conditions of data set [3]: unilateral 6-OH-DA lesioned rats.
The conditions of data set [4]: monkeys.

Structures are written as SMILES.

Consider `CCCCCCOc1nsnc1C1=CCCN(C)C1` [xanomeline], for which the amphetamine induced locomotion result in data set [1] is “reverses”. Also, the apomorphine induced climbing entry in data set [2] is reported as “reverses”. For the same compound, the “dopamine agonist driven turning” value in data set [3] is listed as “reverses”. Moreover, the amphetamine-induced motor unrest entry in data set [4] is “reverses”. For the same compound, for the setting “Alzheimer's patients”, the “psychotic symptoms such as suspiciousness, hallucinations and delusions” value is on record as “reduce psychotic symptoms”. In addition, where the note is “patients”, the side effects entry was “dose-limiting peripheral cholinergic side effects”.
